Data from publication PMC9604400, “Synthesis, Anticancer and Antitubercular Properties of New Chalcones and Their Nitrogen-Containing Five-Membered Heterocyclic Hybrids Bearing Sulfonamide Moiety” (International Journal of Molecular Sciences, 2022).
≈ marks a conversion by molar mass, not a printed value. Like-named read-outs stand apart in the source and are kept apart here.

Tests used:
[1] = test system: Mycobacterium tuberculosis H37Rv (ATCC 27294); test: microbe, parasite or virus in culture; assay type: cell-based; conditions: agar dilution SPOTi, read-out: MIC Against M. tuberculosis H37Rv
[2] = test system: Mycobacterium bovis BCG (ATCC 35734); test: microbe, parasite or virus in culture; assay type: cell-based; conditions: for MIC: Mycobacterium tuberculosis variant bovis BCG, read-out: MIC Against M. bovis BCG; for MIC Against M. bovis BCG: agar dilution SPOTi
[3] = Cytotoxicity on Vero cell line (MTT); assay type: cell-based, African green monkey; conditions: African green monkey, Vero cells (African green monkey kidney, ATCC CCL-81); MTT, 24 h
Vero cell line = test: Cytotoxicity on Vero cell line (MTT); assay type: cell-based, African green monkey; conditions: Vero IC50 / MIC M. tuberculosis H37Rv
M. tuberculosis H37Rv [4] = test: Growth curves in liquid medium and re-plating (cidal or static); assay type: cell-based, Mycobacterium tuberculosis; conditions: for cidal or static effect: re-plating on solid media without compound, up to 10×MIC
α-glucosidase = conditions: Figure 1, literature compound; cited from earlier work
[5] = Figure 1, literature compound, cited from earlier work
[6] = test system: 60 human cancer cell lines; test: NCI-60 screen (SRB), whole panel; assay type: cell-based; conditions: Homo sapiens; single dose 10 μM, mean over 60 cell lines; over 100% = cell death; read-out: Mean growth inhibition (GI) percentage
M. tuberculosis H37Rv [7] = test: Checkerboard synergism assay; assay type: cell-based, Mycobacterium tuberculosis; conditions: for MIC: Mycobacterium tuberculosis, H37RV, checkerboard, alone
Description: The synergism assays were carried out in 96-well plates with Middlebrook 7H9 medium supplemented with OADC.

[8] = 10×MIC, 21 days, compared with day 0
[9] = antibiotic in combination with 20a
[10] = antibiotic in combination with 20f
[11] = compound in combination with AMK
[12] = compound in combination with INH
[13] = compound in combination with LVX
[14] = compound in combination with RIF

| SMILES | MIC ([1]; Mycobacterium tuberculosis) | MIC [2] | IC50 at 24 h [3] | Selectivity Index (SI) (SI = IC50/MIC) (Vero cell line) | melting point | inhibition at 10 µM [6] | other results |
| --- | --- | --- | --- | --- | --- | --- | --- |
| COc1cc(OC)c(S(=O)(=O)NNC(=O)c2ccncc2)cc1C(=O)/C=C/c1cc(OC)c(OC)c(OC)c1 [Compound 20e, (E)-N’-Isonicotinoyl-2,4-dimethoxy-5-(3-(3,4,5-trimethoxyphenyl)acryloyl)benzenesulfonohydrazide] | 9 µM (≈ 5.02 µg/mL) | 9 µM (≈ 5.02 µg/mL) | 260 ± 690 nM | 0.03 | 162 to 165 °C |  | MIC Against M. bovis BCG [2]: 9.0 µM (≈ 5.02 µg/mL); growth of M. tuberculosis H37Rv in liquid medium (optical density) (M. tuberculosis H37Rv [4]; 1×MIC, after 21 days): moderate growth; growth of M. tuberculosis H37Rv in liquid medium (optical density) (M. tuberculosis H37Rv [4]; [8]): modest growth; cidal or static effect (M. tuberculosis H37Rv [4]): bacteriostatic |
| Cc1ccc(S(=O)(=O)Nc2ccc(C(=O)/C=C/c3ccc(O)c(O)c3)cc2)cc1 [Compound 2] |  |  |  |  |  |  | IC50 (α-glucosidase): 400 nM |
| Cc1ccc(S(=O)(=O)Nc2ccc(C(=O)/C=C/c3ccc(Br)cc3)cc2)cc1 [Compound 1] |  |  |  |  |  |  | LD50 [5]: 220 µM |
| COc1cc(OC)c(S(N)(=O)=O)cc1C(=O)/C=C/c1ccc2c(c1)OCO2 [Compound 17f, (E)-5-(3-(Benzo[d][1,3]dioxol-5-yl)acryloyl)-2,4-dimethoxybenzenesulfonamide] | 25 µM (≈ 9.79 µg/mL) | > 25 µM | 1700 ± 1740 nM | 0.07 | 257 to 258 °C | 10.1% |  |
| COc1ccc(/C=C/C(=O)c2cc(S(=O)(=O)NNC(=O)c3ccncc3)c(OC)cc2OC)cc1 [Compound 20d, (E)-N’-Isonicotinoyl-2,4-dimethoxy-5-(3-(4-methoxyphenyl)acryloyl)benzenesulfonohydrazide] | 20 µM (≈ 9.95 µg/mL) | > 20 µM | 1000 ± 1200 nM | 0.05 | 214 to 217 °C |  |  |
| NNC(=O)c1ccncc1 [Isoniazid, isoniazid, reference compound] | 0.36 µM (≈ 0.0494 µg/mL) | 0.36 µM (≈ 0.0494 µg/mL) |  |  |  |  | MIC (M. tuberculosis H37Rv [7]): 0.012 µg/mL; FICI Index (M. tuberculosis H37Rv [7]; [9]): 0.75; MIC Combination (M. tuberculosis H37Rv [7]; [9]): 0.006 µg/mL; FICI Index (M. tuberculosis H37Rv [7]; [10]): 1.00; MIC Combination (M. tuberculosis H37Rv [7]; [10]): 0.006 µg/mL |
| NS(=O)(=O)c1ccc(N2N=C(C(F)(F)F)CC2c2ccc(F)cc2F)cc1 (stereo not shown) [Compound 4] |  |  |  |  |  |  | ED50 ([5]; test not given): 7400 nM |
| COc1cc(OC)c(S(=O)(=O)NNC(=O)c2ccncc2)cc1C(=O)C=Cc1ccccc1 [Compound 20a, 5-Cinnamoyl-N’-isonicotinoyl-2,4-dimethoxybenzenesulfonohydrazide] | 11 µM (≈ 5.14 µg/mL) | 11 µM (≈ 5.14 µg/mL) | 6050 ± 1390 nM |  | 143 to 145 °C | 19% | MIC [1]: 11 µM (≈ 5.14 µg/mL); MIC Against M. bovis BCG [2]: 11 µM (≈ 5.14 µg/mL); MIC (M. tuberculosis H37Rv [7]): 5 µg/mL; FICI Index (M. tuberculosis H37Rv [7]; [11]): 2.00; MIC Combination (M. tuberculosis H37Rv [7]; [11]): 5 µg/mL; FICI Index (M. tuberculosis H37Rv [7]; [12]): 0.75; MIC Combination (M. tuberculosis H37Rv [7]; [12]): 1.25 µg/mL; FICI Index (M. tuberculosis H37Rv [7]; [13]): 1.25; MIC Combination (M. tuberculosis H37Rv [7]; [13]): 1.25 µg/mL; FICI Index (M. tuberculosis H37Rv [7]; [14]): 1.25; MIC Combination (M. tuberculosis H37Rv [7]; [14]): 5 µg/mL |
| COc1cc(OC)c(S(=O)(=O)NNC(=O)c2ccncc2)cc1C(=O)/C=C/c1ccc2c(c1)OCO2 [Compound 20f, (E)-5-(3-(Benzo[d][1,3]dioxol-5-yl)acryloyl)-N’-isonicotinoyl-2,4-dimethoxybenzenesulfonohydrazide] | 9.8 µM (≈ 5.01 µg/mL) | 20 µM (≈ 10.2 µg/mL) | 2550 ± 930 nM | 0.26 | 150 to 152 °C | 4.19% | MIC (M. tuberculosis H37Rv [7]): 5 µg/mL; FICI Index (M. tuberculosis H37Rv [7]; [11]): 2.00; MIC Combination (M. tuberculosis H37Rv [7]; [11]): 5 µg/mL; FICI Index (M. tuberculosis H37Rv [7]; [12]): 1.00; MIC Combination (M. tuberculosis H37Rv [7]; [12]): 2.5 µg/mL; FICI Index (M. tuberculosis H37Rv [7]; [13]): 1.00; MIC Combination (M. tuberculosis H37Rv [7]; [13]): 2.5 µg/mL; MIC Combination (M. tuberculosis H37Rv [7]; [14]): 1.25 µg/mL; interaction (from FICI) (M. tuberculosis H37Rv [7]; in combination with rifampicin): synergism; growth of M. tuberculosis H37Rv in liquid medium (optical density) (M. tuberculosis H37Rv [4]; 1×MIC, after 21 days): moderate growth; growth of M. tuberculosis H37Rv in liquid medium (optical density) (M. tuberculosis H37Rv [4]; [8]): no significant growth; cidal or static effect (M. tuberculosis H37Rv [4]): bacteriostatic |
| COc1ccc(/C=C/C(=O)c2ccc(OC)c(S(=O)(=O)NNC(=O)c3ccncc3)c2)cc1 [Compound 19d, (E)-N’-Isonicotinoyl-2-methoxy-5-(3-(4-methoxyphenyl)acryloyl)benzenesulfonohydrazide] | 21 µM (≈ 9.82 µg/mL) | > 21 µM | 2190 ± 680 nM | 0.10 | 216 to 217 °C |  |  |
| COc1cc(OC)c(S(N)(=O)=O)cc1C1=NN(C(N)=S)C(c2ccc(Cl)cc2)C1 (stereo not shown) [Compound 27d, 5-(4-Chlorophenyl)-3-(2,4-dimethoxy-5-sulfamoylphenyl)-4,5-dihydro-1H-pyrazole-1-carbothioamide] |  |  |  |  | 223 to 225 °C | 2.34% |  |
| COc1ccc(C(=O)C=Cc2ccccc2)cc1S(=O)(=O)NNC(=O)c1ccncc1 [Compound 19a, 5-Cinnamoyl-N’-isonicotinoyl-2-methoxybenzenesulfonohydrazide] | 23 µM (≈ 10.1 µg/mL) | > 23 µM | 6320 ± 820 nM | 0.28 | 227 to 229 °C | 3.63% |  |
| COc1cc(OC)c(S(=O)(=O)NNC(=O)c2ccncc2)cc1C(=O)/C=C/c1ccc(C)cc1 [Compound 20c, (E)-N’-Isonicotinoyl-2,4-dimethoxy-5-(3-(p-tolyl)acryloyl)benzenesulfonohydrazide] |  |  |  |  | 195 to 197 °C | 26.9% |  |
